Experimental data as given in US11938137B2, “Lipid prodrugs of mycophenolic acid and uses thereof” (PureTech LYT, Inc., priority 2017, dated 2024).

assay: Lymphatic transport assay in mesenteric lymph-duct cannulated rats; type: in vivo, rat; settings: total MPA related compound, intraduodenal infusion, anesthetised mesenteric lymph-duct cannulated rats; class symbols
Protocol: In order to assess the lymphatic transport of disclosed lipid prodrugs in rats, the mesenteric lymph ducts of the rats used in this study were cannulated to allow continual collection of mesenteric lymph. Lipid formulations containing the compound of interest were then administered to the animals, lymph was collected, and drug concentrations in the lymph samples were quantified.
Lipid-based formulations of the compounds of the invention or control compounds were prepared as previously described (Trevaskis, N. L. et al., Pharmaceutical Research, 2005, 22(11), 1863-1870, WO 2016/023082, and WO 2017/041139, hereby incorporated by reference.
In brief, either 1 or 2 mg of test prodrug, 40 mg oleic acid and 25 mg Tween 80 were mixed in a glass vial and incubated at 37° C. for 12-18 h to equilibrate. An aqueous phase consisting of 5.6 ml phosphate buffered saline (PBS, pH 7.4) was subsequently added to the lipid phase (MPA was dissolved in PBS for the preparation of MPA containing formulations) and the formulation emulsified by ultrasonication with a Misonix XL 2020 ultrasonic processor (Misonix, Farmingdale, NY, USA) equipped with a 3.2-mm microprobe tip running at 30% of the maximal amplitude of 240 μm and a frequency of 20 kHz for 2 min at room temperature. Doses for administering to more than one animal can be prepared in one batch by suitably increasing the quantities given above. Drug/prodrug concentrations in all formulations were verified using HPLC-MS.
Male Sprague-Dawley (SD) rats were selected for the lymphatic transport studies. Rats (typically 240-320 g) were maintained on a standard diet and fasted overnight with free access to water prior to experiments.
Anesthetized rats were placed on a heated pad at 37° C. and cannulas inserted into the duodenum (for formulation administration and rehydration), mesenteric lymph duct (for lymph collection), and carotid artery (in cases where blood collection was conducted). Post-surgery, rats were re-hydrated for 0.5 h via intraduodenal infusion of normal saline at 2.8 mL/h. The lipid formulations were infused into the duodenum at 2.8 mL/h for 2 h after which, normal saline was infused at 2.8 mL/h for the remainder of the experiment. Lymph was continuously collected for up to 8 h into pre-weighed Eppendorf tubes containing 10 μL of 1,000 IU/mL heparin. The collection tubes were changed hourly and lymph flow was measured gravimetrically. Aliquots of hourly lymph samples were stored at −20° C. prior to assay.
Drug concentration in lymph is expressed as total drug and includes free drug and drug associated with different glycerides. Lymph samples are first treated with a lipase or other appropriate conditions to liberate free active agent prior to measurement of active agent levels in the lymph. Treatment with a lipase or other hydrolysis conditions liberates free active agent from any corresponding re-esterified glycerides. Porcine pancreatic lipase is appropriate for this purpose. Alternatively, hydrolysis with 0.5 M NaOH may be used. For MPA “phenol” prodrugs (i.e. prodrugs linked to the triglyceride at the aromatic —OH group of MPA), hydrolysis was performed with 0.5 M NaOH except for the lymph samples collected from 3 rats in the group of compound I-20 (MPA-O-C12α′βMe-TG), which were hydrolyzed by porcine pancreatic lipase.
Transport of compounds into lymph during each hourly collection period was calculated from the product of the volume of lymph collected and the measured concentrations in lymph. For fluorescently-labelled compounds such as a BDP-conjugate, the concentrations of total compound may be measured by fluorescence spectroscopy without hydrolysis.
The results of the lymphatic transport assays are summarized in Table 2, below, and FIGS. 1-19. Table 2 summarizes lymphatic transport of total MPA related compound (% of administered dose) following intraduodenal infusion to anaesthetised, mesenteric lymph-duct cannulated rats. […]

Structure (SMILES)	Cumulative lymphatic transport % dose (Mean ± SD, or Range if n = 2)
CCCCCCCCCCCCCCCC(=O)OCC(COC(=O)CCCCCCCCCCCCCCC)OC(=O)CCCCCCCCCCC(=O)Oc1cc(C)cc(C)c1C(C)(C)CC(=O)Oc1c(C/C=C(\C)CCC(=O)OC)c(OC)c(C)c2c1C(=O)OC2 [I-47]	B (between 1% and 10% (1%-10%))
CCCCCCCCCCCCCCCC(=O)OCC(COC(=O)CCCCCCCCCCCCCCC)OC(=O)CCCCCCCCCC(=O)Oc1c(C/C=C(\C)CCC(=O)OC)c(OC)c(C)c2c1C(=O)OC2 [I-48]	A (greater than 10% (>10%))
CCCCCCCCCCCCCCCC(=O)OCC(COC(=O)CCCCCCCCCCCCCCC)OC(=O)CC(C)CCCCCCCOC(=O)CC/C(C)=C/Cc1c(O)c2c(c(C)c1OC)COC2=O (stereo not shown) [I-50, (E)-2-((10-((6-(4-hydroxy-6-methoxy-7-methyl-3-oxo-1,3-dihydroisobenzofuran-5-yl)-4-methylhex-4-enoyl)oxy)-3-methyldecanoyl)oxy)propane-1,3-diyl dipalmitate]	A (greater than 10% (>10%))
CCCCCCCCCCCCCCCC(=O)OCC(COC(=O)CCCCCCCCCCCCCCC)OC(=O)CC(C)CCCCCCCCCOC(=O)CC/C(C)=C/Cc1c(O)c2c(c(C)c1OC)COC2=O (stereo not shown) [I-51, (E)-2-((12-((6-(4-hydroxy-6-methoxy-7-methyl-3-oxo-1,3-dihydroisobenzofuran-5-yl)-4-methylhex-4-enoyl)oxy)-3-methyldodecanoyl)oxy)propane-1,3-diyl dipalmitate]	A (greater than 10% (>10%))
CCCCCCCCCCCCCCCC(=O)OCC(COC(=O)CCCCCCCCCCCCCCC)OC(=O)C(C)CCCCCCCCC(C)C(=O)Oc1cc(C)cc(C)c1C(C)(C)CC(=O)Oc1c(C/C=C(\C)CCC(=O)OC)c(OC)c(C)c2c1C(=O)OC2 (stereo not shown) [I-52]	B (between 1% and 10% (1%-10%))
CCCCCCCCCCCCCCCC(=O)OCC(COC(=O)CCCCCCCCCCCCCCC)OC(=O)CC(C)CCCC(=O)Oc1c(C/C=C(\C)CCC(=O)OC)c(OC)c(C)c2c1C(=O)OC2 (stereo not shown) [I-53]	A (greater than 10% (>10%))
CCCCCCCCCCCCCCCC(=O)OCC(COC(=O)CCCCCCCCCCCCCCC)OC(=O)CC(C)CCCCCCCC(C)C(=O)Oc1ccc(COc2c(C/C=C(\C)CCC(=O)OC)c(OC)c(C)c3c2C(=O)OC3)cc1 (stereo not shown) [I-54, (E)-12-(1,3-bis(palmitoyloxy)propan-2-yl) 1-(4-(((6-methoxy-5-(6-methoxy-3-methyl-6-oxohex-2-en-1-yl)-7-methyl-3-oxo-1,3-dihydroisobenzofuran-4-yl)oxy)methyl)phenyl) 2,10-dimethyldodecanedioate]	B (between 1% and 10% (1%-10%))
CCCCCCCCCCCCCCCC(=O)OCC(COC(=O)CCCCCCCCCCCCCCC)OC(=O)CCCCCCCCCCCCCC(=O)Oc1c(C/C=C(\C)CCC(=O)OC)c(OC)c(C)c2c1C(=O)OC2 [I-57, (E)-1-(1,3-bis(palmitoyloxy)propan-2-yl) 15-(6-methoxy-5-(6-methoxy-3-methyl-6-oxohex-2-en-1-yl)-7-methyl-3-oxo-1,3-dihydroisobenzofuran-4-yl) pentadecanedioate]	A (greater than 10% (>10%))
CCCCCCCCCCCCCCCC(=O)OCC(COC(=O)CCCCCCCCCCCCCCC)OC(=O)CC(C)CCCCCCCC(C)C(=O)OC(C)Oc1c(C/C=C(\C)CCC(=O)OC)c(OC)c(C)c2c1C(=O)OC2 (stereo not shown) [I-58, (E)-12-(1,3-bis(palmitoyloxy)propan-2-yl) 1-(1-((6-methoxy-5-(6-methoxy-3-methyl-6-oxohex-2-en-1-yl)-7-methyl-3-oxo-1,3-dihydroisobenzofuran-4-yl)oxy)ethyl) 2,10-dimethyldodecanedioate]	A (greater than 10% (>10%))
CCCCCCCCCCCCCCCC(=O)OCC(COC(=O)CCCCCCCCCCCCCCC)OC(=O)C(C)CCCCCCCCCC(=O)Oc1c(C/C=C(\C)CCC(=O)OC)c(OC)c(C)c2c1C(=O)OC2 (stereo not shown) [I-60]	A (greater than 10% (>10%))
